Results published in PubChem BioAssay (NCI).
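GI50 is the concentration that inhibits growth by half. TGI: concentration producing complete growth inhibition.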

Key:
Assay in all cases: NCI tumour cell line growth inhibition, 384-well format
[1] = test system: MALME-3M melanoma
[2] = test system: CAKI-1 renal
[3] = test system: SK-MEL-28 melanoma
[4] = test system: A549 NSCLC
[5] = test system: HL-60(TB) leukemia
[6] = test system: UACC-62 melanoma
[7] = test system: MDA-MB-231 breast
[8] = test system: HOP-92 NSCLC
[9] = test system: SF-539 CNS
[10] = test system: DU-145 prostate
[11] = test system: PC-3 prostate
[12] = test system: ACHN renal
[13] = test system: SN12C renal
[14] = test system: IGROV1 ovarian
[15] = test system: NCI-H23 lung
[16] = test system: HCC-2998 colon
[17] = test system: HT29 colon
[18] = test system: 786-0 renal
[19] = test system: NCI-H322M lung
[20] = test system: OVCAR-5 ovarian
[21] = test system: UACC-257 melanoma
[22] = test system: SK-OV-3 ovarian
[23] = test system: HCT-15 colon
[24] = test system: M14 melanoma
[25] = test system: OVCAR-4 ovarian
[26] = test system: SNB-75 CNS
[27] = test system: SNB-19 CNS
[28] = test system: HOP-62 NSCLC
[29] = test system: SF-295 CNS
[30] = test system: EKVX NSCLC
[31] = test system: SK-MEL-5 melanoma
[32] = test system: BT-549 breast
[33] = test system: UO-31 renal
[34] = test system: SF-268 CNS
[35] = test system: HS 578T breast
[36] = test system: NCI-H460 NSCLC
[37] = test system: T-47D breast
[38] = test system: COLO 205 colon
[39] = test system: A498 renal
[40] = test system: CCRF-CEM leukemia
[41] = test system: HCT-116 colon
[42] = test system: NCI/ADR-RES ovarian
[43] = test system: MOLT-4 leukemia
[44] = test system: SW-620 colon
[45] = test system: RPMI-8226 leukemia
[46] = test system: K-562 leukemia
[47] = test system: RXF 393 renal
[48] = test system: MDA-MB-468 breast
[49] = test system: NCI-H522 lung
[50] = test system: TK-10 renal
[51] = test system: NCI-H226 lung
[52] = test system: MDA-MB-435 melanoma
[53] = test system: U251 glioblastoma
[54] = test system: MCF7 breast
[55] = test system: KM12 colon
[56] = test system: LOX IMVI melanoma
[57] = test system: OVCAR-3 ovarian
[58] = test system: OVCAR-8 ovarian

With Cc1cnc(CNC(=O)c2c(=O)c3ccc(N4CCCN(C)CC4)nc3n3c2sc2ccccc23)cn1 the GI50 [1] was 0.806 µM, the TGI [1] was > 100 µM and the GI50 [2] was 0.607 µM. For the same compound, the TGI [2] was > 100 µM, the GI50 [3] was 27 µM and the TGI [3] was > 100 µM. It also gave a GI50 [4] of 0.0369 µM, a TGI [4] of 1.34 µM and a GI50 [5] of 0.0586 µM. For the same compound, the TGI [5] was 2.26 µM, the GI50 [6] was 0.175 µM and the TGI [6] was > 100 µM. The GI50 [7] was 0.397 µM, the TGI [7] was > 100 µM and the GI50 [8] was 0.353 µM. The TGI [8] was > 100 µM, the GI50 [9] was 0.259 µM and the TGI [9] was > 100 µM. For the same compound, the GI50 [10] was 0.49 µM, the TGI [10] was 33.5 µM and the GI50 [11] was 1.6 µM. The TGI [11] was 22.3 µM, the GI50 [12] was 0.0643 µM and the TGI [12] was > 100 µM. For the same compound, the GI50 [13] was 0.307 µM, the TGI [13] was > 100 µM and the GI50 [14] was 0.323 µM. For the same compound, the TGI [14] was > 100 µM, the GI50 [15] was 0.714 µM and the TGI [15] was > 100 µM. For the same compound, the GI50 [16] was 1.66 µM, the TGI [16] was 19.2 µM and the GI50 [17] was 0.33 µM. The TGI [17] was > 100 µM, the GI50 [18] was 0.359 µM and the TGI [18] was 12.8 µM. The GI50 [19] was 0.877 µM, the TGI [19] was > 100 µM and the GI50 [20] was 27.7 µM. For the same compound, the TGI [20] was > 100 µM, the GI50 [21] was 7.63 µM and the TGI [21] was > 100 µM. For the same compound, the GI50 [22] was 1.35 µM, the TGI [22] was > 100 µM and the GI50 [23] was 0.0877 µM. The TGI [23] was 2.76 µM, the GI50 [24] was 0.781 µM and the TGI [24] was > 100 µM. The GI50 [25] was 0.383 µM, the TGI [25] was 5.56 µM and the GI50 [26] was 0.832 µM. The TGI [26] was > 100 µM, the GI50 [27] was 0.322 µM and the TGI [27] was > 100 µM. The GI50 [28] was 0.122 µM, the TGI [28] was > 100 µM and the GI50 [29] was 0.608 µM. For the same compound, the TGI [29] was > 100 µM, the GI50 [30] was 34 µM and the TGI [30] was > 100 µM. It also gave a GI50 [31] of 0.172 µM, a TGI [31] of 48 µM and a GI50 [32] of 1.38 µM. For the same compound, the TGI [32] was > 100 µM, the GI50 [33] was 1.54 µM and the TGI [33] was > 100 µM. It also gave a GI50 [34] of 0.0241 µM, a TGI [34] of 0.088 µM and a GI50 [35] of 0.0697 µM. For the same compound, the TGI [35] was > 100 µM, the GI50 [36] was 0.0228 µM and the TGI [36] was 1.12 µM. The GI50 [37] was 21.5 µM, the TGI [37] was > 100 µM and the GI50 [38] was 0.244 µM. The TGI [38] was > 100 µM, the GI50 [39] was 0.112 µM and the TGI [39] was 1.55 µM. The GI50 [40] was 0.0242 µM, the TGI [40] was 0.111 µM and the GI50 [41] was 0.112 µM. For the same compound, the TGI [41] was 1.45 µM, the GI50 [42] was > 100 µM and the TGI [42] was > 100 µM. For the same compound, the TGI [43] was 0.0175 µM, the GI50 [44] was 0.0991 µM and the TGI [44] was > 100 µM. It also gave a GI50 [45] of 0.0583 µM, a TGI [45] of 1.62 µM and a GI50 [46] of 0.231 µM. The TGI [46] was 16.3 µM, the GI50 [47] was 0.0806 µM and the TGI [47] was > 100 µM. For the same compound, the GI50 [48] was 12.4 µM, the TGI [48] was > 100 µM and the GI50 [49] was 19.9 µM. The TGI [49] was > 100 µM, the GI50 [50] was 9.17 µM and the TGI [50] was > 100 µM. The GI50 [51] was 0.741 µM, the TGI [51] was > 100 µM and the GI50 [52] was 2.9 µM. The TGI [52] was > 100 µM, the GI50 [53] was 0.517 µM and the TGI [53] was > 100 µM. The GI50 [54] was 0.416 µM, the TGI [54] was 1.75 µM and the GI50 [55] was 1.03 µM. The TGI [55] was 2.45 µM, the GI50 [56] was 0.138 µM and the TGI [56] was 1.41 µM. It also gave a GI50 [57] of 0.462 µM, a TGI [57] of 48.5 µM and a GI50 [58] of 0.234 µM. The TGI [58] was > 100 µM.
